Results: patent publication US9790216B2, “3-substituted cyclopentylamine derivatives” (Merck Patent GmbH, priority 2013, dated 2017)

Each molecule was assayed against T1, human fatty acid synthase FASN (Homo sapiens, UniProt P49327) (assay: Biochemical activity testing of human fatty acid synthase FASN (NADPH fluorescence intensity enzyme assay)). Conditions: @30 μM.
T1 construct: human recombinant full-length fatty acid synthase; made in house; host or cells: SF9 cells
Excerpt: • GST=Glutathione-S-transferase • FRET=Fluorescence resonance energy transfer • HTRF®=(homogenous time resolved fluorescence) • HEPES=4-(2-hydroxyethyl)-1-piperazine ethanesulfonic acid buffer • DTT=Dithiothreitol • BSA=bovine serum albumin • CHAPS=detergent; • CHAPS=3-[(3-cholamidopropyl)dimethylammonio]-1-propanesulfonate Biochemical Activity Testing of Human Fatty Acid Synthase FASN
Fatty acid synthase FASN is a multifunctional enzyme with seven catalytic activities thereby synthesising long chain fatty acids especially palmitoyl-CoA in the presence of co-factor NADPH starting from the substrates acetyl-CoA and malonyl-CoA. The reductive synthesis is realized by the oxidation of NADPH to NADP. Since NADPH has a high fluorescence intensity quantum yield compared to NADP with excitation at 340 nm and emission at 460 nm, the reaction can be monitored via the decrease in fluorescence intensity. The biochemical FASN activity testing was performed as 384 well two-time-point kinetic fluorescence intensity assay format in Greiner low volume medium binding 384-well black microtiter plates in a total assay volume of 8 μl and was used for high throughput screen. In each well 3 μl 40 nM human recombinant full-length fatty acid synthase (produced in-house in SF9 cells) were dispensed in the following assay buffer: 50 mM potassium phosphate buffer pH 7.0, 0.005% (w/v) BSA, 2 mM Glutathione, 0.02% Tween-20. Then 2 μl of 200 μM NADPH in assay buffer were added, followed by the addition of the test compounds in 10 dilution concentrations starting with 30 μM (final concentration) to get a final DMSO content of 1% (v/v). The mixture was incubated for at least 15 min at room temperature. After the pre-incubation the enzymatic reaction was started by the addition of 2 μl substrate solution (80 μM acetyl-CoA, 240 μM malonyl-CoA). A first fluorescence intensity measurement (time point one) was performed with an Envision multimode reader (Perkin Elmer LAS Germany GmbH) at excitation wavelength 340 nm (lamp mode) and emission wavelength 460 nm. The reaction was incubated for 30 minutes at room temperature. After this the fluorescence intensity was measured again in the Envision using the same parameters as described above (second time point measurement). The data were analysed by subtracting the first time point measurement value from the second time point measurement value (after the enzymatic reaction). The differences of the emission signals were determined. These reflect directly the conversion rate of NADPH. The full value used was the inhibitor-free reaction. A pharmacological zero value was used like GSK837149A (Sigma-Aldrich) in a final concentration of 5-10 μM. The inhibitory values (IC50) were determined using either the program Symyx Assay Explorer® or Condosseo® from GeneData.

T1 sequence (P49327 whole entry): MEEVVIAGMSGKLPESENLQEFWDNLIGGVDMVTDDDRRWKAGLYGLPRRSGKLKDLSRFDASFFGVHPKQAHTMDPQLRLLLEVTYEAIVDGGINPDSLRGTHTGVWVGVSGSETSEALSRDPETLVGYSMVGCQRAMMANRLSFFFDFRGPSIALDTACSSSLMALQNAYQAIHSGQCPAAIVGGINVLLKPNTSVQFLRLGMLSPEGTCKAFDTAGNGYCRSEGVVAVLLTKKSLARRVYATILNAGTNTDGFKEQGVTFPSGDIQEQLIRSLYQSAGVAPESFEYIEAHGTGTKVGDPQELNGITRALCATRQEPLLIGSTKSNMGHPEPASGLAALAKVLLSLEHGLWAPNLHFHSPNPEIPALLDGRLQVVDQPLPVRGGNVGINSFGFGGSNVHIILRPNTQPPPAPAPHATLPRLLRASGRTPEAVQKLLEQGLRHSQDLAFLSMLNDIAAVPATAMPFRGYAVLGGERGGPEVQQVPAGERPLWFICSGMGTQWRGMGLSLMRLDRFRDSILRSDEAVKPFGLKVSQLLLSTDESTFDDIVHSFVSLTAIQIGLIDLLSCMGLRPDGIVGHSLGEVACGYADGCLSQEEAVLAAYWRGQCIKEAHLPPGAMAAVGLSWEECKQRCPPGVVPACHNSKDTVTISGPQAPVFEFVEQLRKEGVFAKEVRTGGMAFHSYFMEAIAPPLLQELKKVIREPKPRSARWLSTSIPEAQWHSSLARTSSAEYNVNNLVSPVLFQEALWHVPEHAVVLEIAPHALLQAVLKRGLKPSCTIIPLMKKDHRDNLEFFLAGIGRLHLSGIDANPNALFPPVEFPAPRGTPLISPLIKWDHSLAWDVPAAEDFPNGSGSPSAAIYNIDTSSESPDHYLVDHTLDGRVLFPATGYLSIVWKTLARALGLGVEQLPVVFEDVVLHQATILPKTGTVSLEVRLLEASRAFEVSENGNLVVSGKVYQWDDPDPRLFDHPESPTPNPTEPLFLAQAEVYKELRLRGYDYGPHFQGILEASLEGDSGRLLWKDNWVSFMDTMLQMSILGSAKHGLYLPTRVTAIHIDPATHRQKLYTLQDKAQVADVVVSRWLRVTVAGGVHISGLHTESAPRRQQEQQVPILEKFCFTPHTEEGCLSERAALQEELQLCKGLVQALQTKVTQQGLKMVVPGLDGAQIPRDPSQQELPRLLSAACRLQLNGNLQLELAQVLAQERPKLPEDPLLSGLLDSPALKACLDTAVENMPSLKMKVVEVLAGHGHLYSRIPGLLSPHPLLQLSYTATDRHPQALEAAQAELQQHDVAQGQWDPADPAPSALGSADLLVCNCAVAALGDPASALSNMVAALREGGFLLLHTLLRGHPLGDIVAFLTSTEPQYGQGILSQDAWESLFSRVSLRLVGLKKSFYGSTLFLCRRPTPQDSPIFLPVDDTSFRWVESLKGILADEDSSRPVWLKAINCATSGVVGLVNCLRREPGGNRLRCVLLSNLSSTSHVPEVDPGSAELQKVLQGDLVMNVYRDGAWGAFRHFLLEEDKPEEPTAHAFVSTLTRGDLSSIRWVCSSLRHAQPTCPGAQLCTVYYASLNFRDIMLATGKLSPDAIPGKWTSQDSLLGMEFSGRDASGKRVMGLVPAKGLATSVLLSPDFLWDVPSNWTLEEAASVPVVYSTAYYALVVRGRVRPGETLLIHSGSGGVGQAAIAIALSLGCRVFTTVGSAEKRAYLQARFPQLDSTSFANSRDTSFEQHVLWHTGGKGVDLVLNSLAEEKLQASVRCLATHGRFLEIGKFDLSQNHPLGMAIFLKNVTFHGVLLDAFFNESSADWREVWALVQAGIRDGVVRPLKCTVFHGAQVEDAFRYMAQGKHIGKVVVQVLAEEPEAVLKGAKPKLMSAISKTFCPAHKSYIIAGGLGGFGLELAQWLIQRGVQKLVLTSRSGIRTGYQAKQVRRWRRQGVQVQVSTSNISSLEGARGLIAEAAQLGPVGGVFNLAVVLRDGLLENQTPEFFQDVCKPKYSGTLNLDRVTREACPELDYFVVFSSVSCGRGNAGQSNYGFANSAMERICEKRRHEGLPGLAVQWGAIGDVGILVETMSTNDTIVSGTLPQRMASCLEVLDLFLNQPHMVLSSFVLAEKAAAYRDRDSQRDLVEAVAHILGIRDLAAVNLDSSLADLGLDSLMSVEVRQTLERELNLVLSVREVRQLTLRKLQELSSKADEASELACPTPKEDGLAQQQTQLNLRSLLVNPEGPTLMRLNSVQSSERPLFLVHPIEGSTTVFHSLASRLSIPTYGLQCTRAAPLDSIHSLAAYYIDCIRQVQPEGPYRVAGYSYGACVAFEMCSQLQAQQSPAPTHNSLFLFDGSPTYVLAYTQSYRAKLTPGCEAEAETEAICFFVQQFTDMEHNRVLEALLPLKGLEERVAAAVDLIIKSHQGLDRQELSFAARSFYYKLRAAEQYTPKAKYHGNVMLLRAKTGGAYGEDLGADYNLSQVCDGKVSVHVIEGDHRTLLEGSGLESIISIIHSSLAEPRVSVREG

SMILES | IC50 FASN (enzyme assay): % at single concentration [% @30 μM]
Cc1noc([C@H]2CC[C@@H](N(C)C(=O)c3ccc(-c4nc5ccccc5o4)cc3)C2)n1 [Compound A28, 4-benzoxazol-2-yl-N-methyl-N-[(1 R,3S)-3-(3-methyl-[1,2,4]oxadiazol-5-yl)-cyclopentyl]-benzamide] | −38

Same assay, conditions: human recombinant full-length FASN, inhibition

SMILES | IC50 [nM]
COc1cc(C(=O)N(C)[C@@H]2CC[C@H](c3nnc(C)o3)C2)ccc1-c1nc2ccccc2o1 [Compound A18, 4-benzoxazol-2-yl-3-methoxy-N-methyl-N-[(1 R,3S)-3-(5-methyl-[1,3,4]oxadiazol-2-yl)-cyclopentyl]-benzamide] | < 300
Cc1cnc([C@H]2CC[C@@H](N(C)C(=O)c3ccc(-c4nc5ccccc5o4)cc3)C2)o1 [Compound A26, 4-benzoxazol-2-yl-N-methyl-N-[(1 R,3S)-3-(5-methyl-oxazol-2-yl)-cyclopentyl]-benzamide] | < 300
Cc1nnc([C@H]2CC[C@@H](N(C)C(=O)c3ccc(-c4nc5ccccc5o4)cc3)C2)o1 [Compound A13, 4-benzoxazol-2-yl-N-methyl-N-[(1 R,3S)-3-(5-methyl-[1,3,4]oxadiazol-2-yl)-cyclopentyl]-benzamide] | < 300
CCCc1nnc([C@H]2CC[C@@H](N(C)C(=O)c3ccc(-c4ccc(C#N)cc4)cc3)C2)o1 [Compound A4, 4′-cyano-biphenyl-4-carboxylic acid methyl-[(1 R,3S)-3-(5-propyl-[1,3,4]oxadiazol-2-yl)-cyclopentyl]-amide] | < 300
CCCc1nnc([C@H]2CC[C@@H](N(C)C(=O)c3ccc(C#Cc4ccc(F)cc4)cc3)C2)o1 [Compound A3, 4-(4-fluoro-phenylethynyl)-N-methyl-N-[(1 R,3S)-3-(5-propyl-[1,3,4]oxadiazol-2-yl)-cyclopentyl]-benzamide] | < 300
Cc1nnc([C@H]2CC[C@@H](N(C)C(=O)c3ccc(C#Cc4ccncc4)cc3)C2)o1 [Compound A22, N-methyl-N-[(1R,3S)-3-(5-methyl-[1,3,4]oxadiazol-2-yl)-cyclopentyl]-4-pyridin-4-ylethynyl-benzamide] | 300 to 3000
CCCc1cn([C@H]2CC[C@@H](N(C)C(=O)c3ccc(-c4ccccc4)cc3)C2)nn1 (racemic) [Compound A30, (rac)-cis-biphenyl-4-carboxylic acid methyl-[3-(4-propyl-[1,2,3]triazol-1-yl)-cyclopentyl]-amide] | 3000 to 50000
CC(C)c1nnc([C@H]2CC[C@@H](N(C)C(=O)c3ccc(-c4nc5ccccc5o4)cc3)C2)o1 [Compound A9, 4-benzoxazol-2-yl-N-[(1 R,3S)-3-(5-isopropyl-[1,3,4]oxadiazol-2-yl)-cyclopentyl]-N-methyl-benzamide] | < 300
CCc1nnc([C@H]2CC[C@@H](N(C)C(=O)c3ccc(-c4nc5ccccc5[nH]4)cc3)C2)o1 [Compound A7, 4-(1H-benzimidazol-2-yl)-N-[(1 R,3S)-3-(5-ethyl-[1,3,4]oxadiazol-2-yl)-cyclopentyl]-N-methyl-benzamide] | < 300
CCCc1nnc([C@H]2CC[C@@H](N(C)C(=O)c3ccc(-c4ccccc4)cc3)C2)o1 [Compound A2, biphenyl-4-carboxylic acid methyl-[(1R,3S)-3-(5-propyl-[1,3,4]oxadiazol-2-yl)-cyclopentyl]-amide] | < 300
Cc1nnc([C@H]2CC[C@@H](N(C)C(=O)c3ccc(-c4nc5cc(Cl)ccc5o4)cc3)C2)o1 [Compound A19, 4-(5-chloro-benzoxazol-2-yl)-N-methyl-N-[(1 R,3S)-3-(5-methyl-[1,3,4]oxadiazol-2-yl)-cyclopentyl]-benzamide] | < 300
CN(C(=O)c1ccc(-c2ccccc2)cc1)[C@@H]1CC[C@H](n2cc(C3CC3)nn2)C1 (racemic) [Compound A29, (rac)-cis-biphenyl-4-carboxylic acid [-3-(4-cyclopropyl-[1,2,3]triazol-1-yl)-cyclopentyl]-methyl-amide] | 3000 to 50000
CC(C)c1nnc([C@H]2CC[C@@H](N(C)C(=O)c3ccc(-c4nc5ccccc5[nH]4)cc3)C2)o1 [Compound A11, 4-(1H-benzimidazol-2-yl)-N-[(1 R,3S)-3-(5-isopropyl-[1,3,4]oxadiazol-2-yl)-cyclopentyl]-N-methyl-benzamide] | < 300
Cc1coc([C@H]2CC[C@@H](N(C)C(=O)c3ccc(-c4nc5ccccc5o4)cc3)C2)n1 [Compound A27, 4-benzoxazol-2-yl-N-methyl-N-[(1 R,3S)-3-(4-methyl-oxazol-2-yl)-cyclopentyl]-benzamide] | 300 to 3000
CCc1nnc([C@H]2CC[C@@H](N(C)C(=O)c3ccc(-c4nc5ccccc5o4)cc3)C2)o1 [Compound A5, 4-benzoxazol-2-yl-N-[(1 R,3S)-3-(5-ethyl-[1,3,4]oxadiazol-2-yl)-cyclopentyl]-N-methyl-benzamide] | < 300
Cc1nnc([C@H]2CC[C@@H](N(C)C(=O)c3ccc(-c4nc5ccccc5o4)cn3)C2)o1 [Compound A23, 5-benzoxazol-2-yl-pyridine-2-carboxylic acid methyl-[(1R,3S)-3-(5-methyl-[1,3,4]oxadiazol-2-yl)-cyclopentyl]-amide] | 300 to 3000
CCc1nnc([C@H]2CC[C@@H](N(C)C(=O)c3ccc(-c4ccncc4)cc3)C2)o1 [Compound A8, N-[(1R,3S)-3-(5-ethyl-[1,3,4]oxadiazol-2-yl)-cyclopentyl]-N-methyl-4-pyridin-4-yl-benzamide] | 300 to 3000
Cc1nnc([C@H]2CC[C@@H](N(C)C(=O)c3ccc(C#Cc4ccc(Cl)cc4)cc3)C2)o1 [Compound A21, 4-(4-chloro-phenylethynyl)-N-methyl-N-[(1 R,3S)-3-(5-methyl-[1,3,4]oxadiazol-2-yl)-cyclopentyl]-benzamide] | < 300
CCc1nnc([C@H]2CC[C@@H](N(C)C(=O)c3ccc(-c4ccc(C#N)cc4)cc3)C2)o1 [Compound A6, 4′-cyano-biphenyl-4-carboxylic acid [(1R,3S)-3-(5-ethyl-[1,3,4]oxadiazol-2-yl)-cyclopentyl]-methyl-amide] | < 300
CC(C)c1nnc([C@H]2CC[C@@H](N(C)C(=O)c3ccc(-c4ccncc4)cc3)C2)o1 [Compound A12, N-[(1R,3S)-3-(5-isopropyl-[1,3,4]oxadiazol-2-yl)-cyclopentyl]-N-methyl-4-pyridin-4-yl-benzamide] | 300 to 3000
Cc1nnc([C@H]2CC[C@@H](N(C)C(=O)c3ccc(-c4nc5ccccc5s4)cc3)C2)o1 [Compound A14, 4-benzothiazol-2-yl-N-methyl-N-[(1 R,3S)-3-(5-methyl-[1,3,4]oxadiazol-2-yl)-cyclopentyl]-benzamide] | < 300
Cc1nnc([C@H]2CC[C@@H](N(C)C(=O)c3ccc(-c4ccc(C#N)cc4)cc3)C2)o1 [Compound A25, 4′-cyano-biphenyl-4-carboxylic acid methyl-[(1R,3S)-3-(5-methyl-[1,3,4]oxadiazol-2-yl)-cyclopentyl]-amide] | < 300
Cc1nnc([C@H]2CC[C@@H](N(C)C(=O)c3ccc(-c4ccncc4)cc3)C2)o1 [Compound A15, N-methyl-N-[(1R,3S)-3-(5-methyl-[1,3,4]oxadiazol-2-yl)-cyclopentyl]-4-pyridin-4-yl-benzamide] | 300 to 3000
Cc1nnc([C@H]2CC[C@@H](N(C)C(=O)c3ccc(-c4nc5ccccc5[nH]4)cc3)C2)o1 [Compound A17, 4-(1H-benzimidazol-2-yl)-N-methyl-N-[(1 R,3S)-3-(5-methyl-[1,3,4]oxadiazol-2-yl)-cyclopentyl]-benzamide] | < 300
